In EP4650362A1, “NEUROPROTECTIVE PSD-95 POLYPEPTIDE INHIBITOR AND USE THEREOF” (Beijing Tuo Jie Biopharmaceutical Co. Ltd., priority 2023, dated 2024):
Non-standard residues stand in square brackets, D forms with d. Residues, ends and D or L forms follow the SMILES beside them. hArg = N=C(N)NCCCC[C@H](N)C(=O)O; Tle = CC(C)(C)[C@H](N)C(=O)O; Dab = NCC[C@H](N)C(=O)O; Aib = CC(C)(N)C(=O)O

Experiments:
[1] = target: T1, human PSD95-PDZ2 (Homo sapiens, UniProt P78352); test: competitive ELISA, affinity for human PSD95-PDZ2; type: binding; conditions: for IC50: competitive ELISA against 0.3 µM Biotin-NA-1, error of this test within three times, read-out: IC50; for rIC50: ratio of the affinity of the polypeptide compound to the affinity of NA-1
T1 construct: PDZ2 (155-249, the Flag-His-Avitag-TEVsite tag is italicized); made in house; host or cells: E. coli BL21-DE3 (PET vector)
From the text: The objective of this test example was to determine the affinities of polypeptide compounds for human PSD95-PDZ2 using competitive ELISAs.
The amino acid sequence of PDZ2 protein was designed using human PSD95 (Uniprot Entry: P78352) as a template for PDZ: PDZ2 (155-249, the Flag-His-Avitag-TEVsite tag is italicized and was subsequently used for purification and biotinylation): […]
[…] (SEQ ID NO. 62). The PDZ2 gene was constructed onto a PET expression vector, and induced expression was performed using BL21-DE3 E. coli cells under conditions of 37 °C and 1 mM IPTG 4 h. Then centrifugation was performed at 10,000 g at 4 °C for 10 min, and the cell pellets were collected, resuspended in 1× PBS solution, and then lysed using a homogenizer. The lysate was centrifuged at high speed, and the supernatant was collected and filtered through a 0.45 µm membrane. A Ni-Sepharose affinity column was equilibrated with 5 column volumes of a 20 mM phosphate buffer (pH 8.0). The sample was centrifuged at high speed to remove impurities and loaded onto the column for binding. The column was rinsed with the 20 mM phosphate buffer until the A280 reading dropped to the baseline. Gradient elution was then performed with the 20 mM phosphate buffer and 0-500 mM imidazole. A protein was collected, and whether it was the target protein was determined. The purified sample described above was buffer-exchanged into 1× PBS solution, and the resulting solution was concentrated to a volume of 2 mL and further purified using a Superdex200 gel chromatography column (GE) equilibrated with 1× PBS. The target peak was collected and aliquoted for later use.
PSD95-PDZ2 (the tag was removed by TEV enzyme) was diluted with 1× PBS buffer to 1 µg/mL, added to a 96-well microplate (Corning, 9018, 25/box 96-well clear flat bottom plate) at 100 µL/well, and left to stand overnight at 4 °C for 16-20 h. After the liquid was discarded, the plate was washed three times with PBST (pH 7.4, 0.05% Tween-20) buffer, and a 4% BSA blocking solution diluted with PBST buffer was then added (300 µL/well). The plate was blocked by incubation in an incubator at 37 °C for 1 h. After the blocking was complete, the blocking solution was discarded, and the plate was washed three times with PBST buffer. Biotin-NA-1, at a constant concentration of 0.3 µM, and the test compounds, having a starting concentration of 100 µM and serially diluted ten-fold with PBS buffer to seven concentrations (100, 10, 1, 0.1, 0.01, 0.001, 0.0001, and 0 µM), were then added, and the plate was incubated in an incubator at 37 °C for 1 h. After the incubation was complete, the reaction solutions in the microplate were discarded, and the plate was washed three times with PBST. 100 µL of HRP-SA secondary antibody (diluted at 1:2000) was added to each well, and the plate was incubated at 37 °C for 1 h. After the plate was washed three times with PBST, 100 µL of TMB chromogenic substrate was added. The plate was incubated at room temperature for 1-3 min, and 100 µL of 1 M sulfuric acid was added to stop the reaction.
The absorbance at 450 nm was measured using a SpectraMax M5 microplate reader, and non-linear fitting was performed using GraphPad Prism 9 to calculate the binding IC50 values of the test compounds to PSD95-PDZ2 protein.

[2] = target: T2, human PSD95-PDZ3 (Homo sapiens, UniProt P78352); test: binding ELISA with Biotin-PDZ3; conditions: plate coated with 2 µM test compound, Biotin-PDZ3 titrated; read-out: EC50 (PDZ3)
T2 construct: PDZ3 (309-401, Flag-His-Avitag-TEVsite tag); made in house
From the text: The three PDZ domains in the PSD95 protein are structurally similar. Binding to the PDZ1 and PDZ2 domains can effectively block PSD95-mediated neuroexcitotoxicity. However, the biological function of binding to the PDZ3 domain is unclear. Therefore, to avoid potential safety concerns, this test example assessed the selectivity of polypeptide compounds for the PDZ2 and PDZ3 domains, aiming to identify polypeptide compounds that specifically bind to the PDZ2 domain. The expression and purification of PSD95-PDZ3 protein were carried out with reference to the steps in 3.1.2. The amino acid sequence of PDZ3 protein: […] Site-specifically biotinylated Biotin-PDZ2 and Biotin-PDZ3 proteins were used for binding ELISA assays. […] After the blocking was complete, the blocking solution was discarded, and the plate was washed three times with PBST buffer. […] After the incubation was complete, the reaction solutions in the microplate were discarded, and the plate was washed three times with PBST. 100 μL of HRP-SA secondary antibody (diluted at 1:2000) was added to each well, and the plate was incubated at 37 °C for 1 h. After the plate was washed three times with PBST, 100 μL of TMB chromogenic substrate was added. […] The absorbance at 450 nm was measured using a SpectraMax M5 microplate reader, and the binding EC50 values of the test compounds to Biotin-PDZ2 or Biotin-PDZ3 were calculated using GraphPad Prism 9. […] The abilities of polypeptide compounds to bind to human PSD95-PDZ2 and human PSD95-PDZ3

[3] = target: T1, human PSD95-PDZ2; test: binding ELISA with Biotin-PDZ2; conditions: for EC50: plate coated with 2 µM test compound, Biotin-PDZ2 titrated, read-out: EC50 (PDZ2); for Specificity for PDZ2 (PDZ3/PDZ2): ratio PDZ3/PDZ2
From the text: The three PDZ domains in the PSD95 protein are structurally similar. Binding to the PDZ1 and PDZ2 domains can effectively block PSD95-mediated neuroexcitotoxicity. However, the biological function of binding to the PDZ3 domain is unclear. Therefore, to avoid potential safety concerns, this test example assessed the selectivity of polypeptide compounds for the PDZ2 and PDZ3 domains, aiming to identify polypeptide compounds that specifically bind to the PDZ2 domain. Site-specifically biotinylated Biotin-PDZ2 and Biotin-PDZ3 proteins were used for binding ELISA assays. […] After the blocking was complete, the blocking solution was discarded, and the plate was washed three times with PBST buffer. […] After the incubation was complete, the reaction solutions in the microplate were discarded, and the plate was washed three times with PBST. 100 µL of HRP-SA secondary antibody (diluted at 1:2000) was added to each well, and the plate was incubated at 37 °C for 1 h. After the plate was washed three times with PBST, 100 µL of TMB chromogenic substrate was added. […] The absorbance at 450 nm was measured using a SpectraMax M5 microplate reader, and the binding EC50 values of the test compounds to Biotin-PDZ2 or Biotin-PDZ3 were calculated using GraphPad Prism 9. […] The abilities of polypeptide compounds to bind to human PSD95-PDZ2 and human PSD95-PDZ3
Target sequence in this assay (P78352 155-249): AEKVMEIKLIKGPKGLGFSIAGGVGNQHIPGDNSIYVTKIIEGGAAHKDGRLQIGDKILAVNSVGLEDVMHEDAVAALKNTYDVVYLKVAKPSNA

T2 sequence (P78352 309-401): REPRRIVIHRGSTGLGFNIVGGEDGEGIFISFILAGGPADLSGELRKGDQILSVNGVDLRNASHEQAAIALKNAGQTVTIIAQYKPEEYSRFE

In the case of CC(C)[C@H](NC(=O)[C@H](CC(=O)O)NC(=O)[C@@H](NC(=O)[C@@H](NC(=O)[C@@H](NC(=O)COCCOCCNC(=O)[C@@H](CCCNC(=N)N)NC(=O)[C@@H](CCCNC(=N)N)NC(=O)[C@@H](CCCNC(=N)N)NC(=O)[C@@H](CCC(N)=O)NC(=O)[C@@H](CCCNC(=N)N)NC(=O)[C@@H](CCCNC(=N)N)NC(=O)[C@@H](CCCCN)NC(=O)[C@@H](CCCCN)NC(=O)[C@@H](CCCNC(=N)N)NC(=O)CNC(=O)[C@H](N)Cc1ccc(O)cc1)C(C)(C)C)C(C)(C)C)[C@@H](C)O)C(=O)O [Polypeptide compound 15, y-G-r-k-k-r-r-q-r-r-r-AEEA-Tle-Tle-T-D-V], the IC50 [1] is reported as 2.62 µM, the rIC50 [1] is reported as 3.00 and the EC50 [2] is reported as greater than 1000 µM. The “selectivity for the PSD95-PDZ2 domain” value ([3]; PDZ2 versus PDZ3, conclusion in words) was “comparable to that of the positive drugs NA-1 and NoNO42”, the EC50 [3] was 0.088 µM and the “Specificity for PDZ2 (PDZ3/PDZ2)” value [3] was greater than 10000.

CCCC[C@H](NC(=O)[C@@H](CCCNC(=N)N)NC(=O)[C@@H](CCCNC(=N)N)NC(=O)[C@@H](CCCNC(=N)N)NC(=O)[C@@H](CCC(N)=O)NC(=O)[C@@H](CCCNC(=N)N)NC(=O)[C@@H](CCCNC(=N)N)NC(=O)[C@@H](CCCCN)NC(=O)[C@@H](CCCCN)NC(=O)[C@@H](CCCNC(=N)N)NC(=O)CNC(=O)[C@H](N)Cc1ccc(O)cc1)C(=O)N[C@H](C(=O)N[C@H](C(=O)N[C@H](C(=O)N[C@H](C(=O)N[C@H](C(=O)N[C@@H](CC(=O)O)C(=O)N[C@H](C(=O)O)C(C)C)[C@@H](C)O)C(C)(C)C)C(C)(C)C)[C@@H](C)O)[C@@H](C)O [Polypeptide compound 16, y-G-r-k-k-r-r-q-r-r-r-Nle-T-T-Tle-Tle-T-D-V] gave an IC50 [1] of 1.52 µM, an EC50 [2] greater than 1000 µM and an EC50 [3] of 0.081 µM.

In the case of CC[C@H](C)[C@H](NC(=O)[C@H](CCCCNC(=N)N)NC(=O)[C@H](CCCCNC(=N)N)NC(=O)[C@@H](NC(=O)[C@@H](CCCNC(=N)N)NC(=O)[C@@H](CCCNC(=N)N)NC(=O)[C@@H](CCCNC(=N)N)NC(=O)[C@@H](CCC(N)=O)NC(=O)[C@@H](CCCNC(=N)N)NC(=O)[C@@H](CCCNC(=N)N)NC(=O)[C@@H](CCCCN)NC(=O)[C@@H](CCCCN)NC(=O)[C@@H](CCCNC(=N)N)NC(=O)CNC(=O)[C@H](N)Cc1ccc(O)cc1)[C@@H](C)O)C(=O)N[C@H](C(=O)N[C@@H](CC(=O)O)C(=O)N[C@H](C(=O)O)C(C)C)[C@@H](C)O [Polypeptide compound 17, y-G-r-k-k-r-r-q-r-r-r-T-homoArg-homoArg-I-T-D-V] (H-[dY]G[dR][dK][dK][dR][dR][dQ][dR][dR][dR]T[hArg][hArg]ITDV-OH), the IC50 [1] is reported as 0.605 µM, the EC50 [2] is reported as 38.3 µM and the EC50 [3] is reported as 0.269 µM.

Work on CC(C)[C@H](NC(=O)[C@H](CC(=O)O)NC(=O)[C@@H](NC(=O)[C@@H](NC(=O)[C@@H](NC(=O)[C@H](CCCCNC(=N)N)NC(=O)[C@H](CCN)NC(=O)C(C)(C)NC(=O)CNC(=O)[C@@H](CCCNC(=N)N)NC(=O)[C@@H](CCCNC(=N)N)NC(=O)[C@@H](CCCNC(=N)N)NC(=O)[C@@H](CCC(N)=O)NC(=O)[C@@H](CCCNC(=N)N)NC(=O)[C@@H](CCCNC(=N)N)NC(=O)[C@@H](CCCCN)NC(=O)[C@@H](CCCCN)NC(=O)[C@@H](CCCNC(=N)N)NC(=O)CNC(=O)[C@H](N)Cc1ccc(O)cc1)C(C)(C)C)C(C)(C)C)[C@@H](C)O)C(=O)O [Polypeptide compound 18, y-G-r-k-k-r-r-q-r-r-r-G-Aib-Dab-homoArg-Tle-Tle-T-D-V] (H-[dY]G[dR][dK][dK][dR][dR][dQ][dR][dR][dR]G[Aib][Dab][hArg][Tle][Tle]TDV-OH) yielded an IC50 [1] of 0.152 µM, a rIC50 [1] of 0.17 and an EC50 [2] of 1.19 µM. The EC50 [3] was 0.015 µM and the “Specificity for PDZ2 (PDZ3/PDZ2)” value [3] was 79.

Work on CC(C)[C@H](NC(=O)[C@H](CC(=O)O)NC(=O)[C@@H](NC(=O)[C@@H](NC(=O)[C@@H](NC(=O)[C@@H](NC(=O)CNC(=O)[C@@H](CCCNC(=N)N)NC(=O)[C@@H](CCCNC(=N)N)NC(=O)[C@@H](CCCNC(=N)N)NC(=O)[C@@H](CCC(N)=O)NC(=O)[C@@H](CCCNC(=N)N)NC(=O)[C@@H](CCCNC(=N)N)NC(=O)[C@@H](CCCCN)NC(=O)[C@@H](CCCCN)NC(=O)[C@@H](CCCNC(=N)N)NC(=O)CNC(=O)[C@H](N)Cc1ccc(O)cc1)[C@@H](C)O)C(C)(C)C)C(C)(C)C)[C@@H](C)O)C(=O)O [Polypeptide compound 20, y-G-r-k-k-r-r-q-r-r-r-G-T-Tle-Tle-T-D-V] (H-[dY]G[dR][dK][dK][dR][dR][dQ][dR][dR][dR]GT[Tle][Tle]TDV-OH) yielded an IC50 [1] of 0.763 µM, a rIC50 [1] of 0.84 and an EC50 [2] of 3.23 µM. For the same compound, the EC50 [3] was 0.015 µM and the “Specificity for PDZ2 (PDZ3/PDZ2)” value [3] was 215.
